Test results: PMC3512521, “Synthetic metabolic engineering-a novel, simple technology for designing a chimeric metabolic pathway” (Microbial Cell Factories, 2012)

Legend:
Assay type in all cases: biochemical
[1] = molecular target: T1, PFK (6-phosphofructokinase) (Thermus thermophilus, UniProt P21777); experiment: coupled assay, NAD+ reduction at […] nm; conditions: 0.1 mM substrate, 0.2 mM ATP, 5 mM MgCl2, 0.5 mM MnCl2, pH 7.0, 50 °C
T1 construct: gene pfkA; heat-treated lysate of recombinant E. coli; native form, untagged; Riken HB8 expression plasmid
T1 sequence (P21777 whole entry): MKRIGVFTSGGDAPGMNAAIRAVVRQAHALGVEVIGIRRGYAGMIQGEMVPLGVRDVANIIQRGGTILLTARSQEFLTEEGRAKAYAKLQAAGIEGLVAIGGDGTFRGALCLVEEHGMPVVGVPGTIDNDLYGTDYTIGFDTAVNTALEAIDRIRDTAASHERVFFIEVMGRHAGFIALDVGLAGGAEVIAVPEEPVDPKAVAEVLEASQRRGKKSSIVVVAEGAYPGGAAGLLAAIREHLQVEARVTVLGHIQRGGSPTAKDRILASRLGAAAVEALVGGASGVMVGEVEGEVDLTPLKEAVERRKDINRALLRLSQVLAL

[2] = molecular target: T2, Thermus lactate dehydrogenase (LDH) (Thermus thermophilus, UniProt Q5SJA1); experiment: spectrophotometric NADH oxidation at […] nm; conditions: 0.2 mM pyruvate, 0.2 mM NADH, pH 7.0, 50 °C; inhibitor
T2 construct: heat-treated (70 °C, 30 min) lysate of recombinant E. coli; native form, untagged
T2 sequence (Q5SJA1 whole entry): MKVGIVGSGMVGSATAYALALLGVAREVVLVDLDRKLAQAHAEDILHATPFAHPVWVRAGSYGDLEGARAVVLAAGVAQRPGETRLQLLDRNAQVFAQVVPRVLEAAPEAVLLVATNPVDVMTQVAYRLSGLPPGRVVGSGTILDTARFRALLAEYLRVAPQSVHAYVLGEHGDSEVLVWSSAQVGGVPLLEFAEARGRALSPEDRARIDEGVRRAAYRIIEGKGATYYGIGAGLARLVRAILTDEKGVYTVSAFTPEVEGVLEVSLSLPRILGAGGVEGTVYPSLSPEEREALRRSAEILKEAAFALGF

[3] = molecular target: T3, FBA (fructose-bisphosphate aldolase) (Thermus thermophilus, UniProt Q5SHF7); experiment: coupled assay, NAD+ reduction at […] nm; conditions: 0.1 mM substrate, 5 mM MgCl2, 0.5 mM MnCl2, pH 7.0, 50 °C
T3 construct: gene TTHA1773; heat-treated lysate of recombinant E. coli; native form, untagged; Riken HB8 expression plasmid
T3 sequence (Q5SHF7 1-305): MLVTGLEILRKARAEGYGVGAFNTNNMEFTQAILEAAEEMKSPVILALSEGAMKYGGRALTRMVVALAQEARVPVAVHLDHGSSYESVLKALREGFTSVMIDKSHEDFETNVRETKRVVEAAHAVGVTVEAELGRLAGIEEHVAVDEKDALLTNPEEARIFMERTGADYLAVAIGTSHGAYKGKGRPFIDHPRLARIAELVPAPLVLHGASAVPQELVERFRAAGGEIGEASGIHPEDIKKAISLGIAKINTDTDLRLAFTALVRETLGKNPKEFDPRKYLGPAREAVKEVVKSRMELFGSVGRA

[4] = molecular target: T4, malate/lactate dehydrogenase (MLDH) (Thermus thermophilus, UniProt Q53W84); experiment: NADH oxidation at […] nm; conditions: 0.2 mM pyruvate, 0.2 mM NADH, 5 mM MgCl2, 0.5 mM MnCl2, pH 7.0, 50 °C
T4 construct: gene TTHB078; heat-treated lysate of recombinant E. coli; native form, untagged; Riken HB8 expression plasmid
T4 sequence (Q53W84 entry or part of it): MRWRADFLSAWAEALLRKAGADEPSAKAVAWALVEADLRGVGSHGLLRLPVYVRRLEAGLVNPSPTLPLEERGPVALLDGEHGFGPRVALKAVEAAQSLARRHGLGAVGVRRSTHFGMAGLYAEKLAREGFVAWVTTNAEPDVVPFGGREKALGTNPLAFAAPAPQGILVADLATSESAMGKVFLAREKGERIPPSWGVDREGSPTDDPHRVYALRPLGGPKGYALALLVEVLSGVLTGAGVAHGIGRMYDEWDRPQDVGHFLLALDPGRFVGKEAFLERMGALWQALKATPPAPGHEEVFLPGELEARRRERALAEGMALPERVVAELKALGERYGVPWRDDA

For `Nc1ncnc2c1ncn2[C@@H]1O[C@H](COP(=O)(O)OP(=O)(O)OP(=O)(O)O)[C@@H](O)[C@H]1O` [ATP], the “coupled assay, NAD+ reduction at 340 nm” value [1] was “phosphorylation of F6P catalyzed by PFK”.

For `NC(=O)c1ccc[n+]([C@@H]2O[C@H](COP(=O)(O)OP(=O)(O)OC[C@H]3O[C@@H](n4cnc5c(N)ncnc54)[C@H](O)[C@@H]3O)[C@@H](O)[C@H]2O)c1` [NAD^+], the “% decrease in activity at 1 mM” value [2] was 95%.

In the case of `O=P(O)(O)OC[C@H]1OC(O)(COP(=O)(O)O)[C@@H](O)[C@@H]1O` (stereo partly shown) [fructose-1,6-bisphosphate], the “coupled assay, NAD+ reduction at 340 nm” value [3] is reported as “fructose-6-phosphate, fructose-1,6-bisphosphate, dihydroxyacetone phosphate”.

In the case of `CC(=O)C(=O)O` [pyruvate], the “NADH oxidation at 340 nm” value [4] is reported as “The enzyme was confirmed to show pyruvate reducing activity”.
